Source: PubChem BioAssay (NCI)
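GI50 marks 50% less growth. At the TGI there is no net growth.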

Key:
Experiment in all cases: inhibition of tumour cell growth, NCI panel, 384-well format
MCF7 breast = tested on: MCF7 breast
MDA-MB-231 breast = tested on: MDA-MB-231 breast
SW-620 colon = tested on: SW-620 colon
M14 melanoma = tested on: M14 melanoma
A498 renal = tested on: A498 renal
NCI-H23 lung = tested on: NCI-H23 lung
UO-31 renal = tested on: UO-31 renal
SNB-19 CNS = tested on: SNB-19 CNS
SK-MEL-2 melanoma = tested on: SK-MEL-2 melanoma
DU-145 prostate = tested on: DU-145 prostate
LOX IMVI melanoma = tested on: LOX IMVI melanoma
HCT-116 colon = tested on: HCT-116 colon
COLO 205 colon = tested on: COLO 205 colon
SR leukemia = tested on: SR leukemia
MDA-MB-468 breast = tested on: MDA-MB-468 breast
OVCAR-8 ovarian = tested on: OVCAR-8 ovarian
SNB-75 CNS = tested on: SNB-75 CNS
OVCAR-5 ovarian = tested on: OVCAR-5 ovarian
HCC-2998 colon = tested on: HCC-2998 colon
HCT-15 colon = tested on: HCT-15 colon
EKVX NSCLC = tested on: EKVX NSCLC
SF-295 CNS = tested on: SF-295 CNS
A549 NSCLC = tested on: A549 NSCLC
SF-268 CNS = tested on: SF-268 CNS
IGROV1 ovarian = tested on: IGROV1 ovarian
HL-60(TB) leukemia = tested on: HL-60(TB) leukemia
UACC-257 melanoma = tested on: UACC-257 melanoma
HOP-92 NSCLC = tested on: HOP-92 NSCLC
786-0 renal = tested on: 786-0 renal
NCI-H460 NSCLC = tested on: NCI-H460 NSCLC
U251 glioblastoma = tested on: U251 glioblastoma
T-47D breast = tested on: T-47D breast
CCRF-CEM leukemia = tested on: CCRF-CEM leukemia
MOLT-4 leukemia = tested on: MOLT-4 leukemia
HOP-62 NSCLC = tested on: HOP-62 NSCLC
HT29 colon = tested on: HT29 colon
UACC-62 melanoma = tested on: UACC-62 melanoma
NCI-H322M lung = tested on: NCI-H322M lung
SK-MEL-28 melanoma = tested on: SK-MEL-28 melanoma
HS 578T breast = tested on: HS 578T breast
MDA-MB-435 melanoma = tested on: MDA-MB-435 melanoma
K-562 leukemia = tested on: K-562 leukemia
OVCAR-3 ovarian = tested on: OVCAR-3 ovarian
TK-10 renal = tested on: TK-10 renal
SK-OV-3 ovarian = tested on: SK-OV-3 ovarian
SN12C renal = tested on: SN12C renal
SF-539 CNS = tested on: SF-539 CNS

CC(C)C[C@H](NC(=O)[C@H](Cc1ccccc1)NC(=O)c1cnccn1)B(O)O
GI50 (MCF7 breast): < 10 nM | TGI (MCF7 breast): 13.9 nM | GI50 (MDA-MB-231 breast): < 10 nM | TGI (MDA-MB-231 breast): < 10 nM | GI50 (SW-620 colon): < 10 nM | TGI (SW-620 colon): < 10 nM | GI50 (M14 melanoma): < 10 nM | TGI (M14 melanoma): < 10 nM | GI50 (A498 renal): < 10 nM | TGI (A498 renal): < 12.4 nM | GI50 (NCI-H23 lung): < 10 nM | TGI (NCI-H23 lung): < 10 nM | GI50 (UO-31 renal): < 10 nM | TGI (UO-31 renal): < 10 nM | GI50 (SNB-19 CNS): < 10 nM | TGI (SNB-19 CNS): < 15.8 nM | GI50 (SK-MEL-2 melanoma): < 10 nM | TGI (SK-MEL-2 melanoma): < 10 nM | GI50 (DU-145 prostate): < 10 nM | TGI (DU-145 prostate): < 13.8 nM | GI50 (LOX IMVI melanoma): < 10 nM | TGI (LOX IMVI melanoma): 15.9 nM | GI50 (HCT-116 colon): < 10 nM | TGI (HCT-116 colon): < 10 nM | GI50 (COLO 205 colon): < 10 nM | TGI (COLO 205 colon): 54 nM | GI50 (SR leukemia): < 10 nM | TGI (SR leukemia): < 10 nM | GI50 (MDA-MB-468 breast): < 10 nM | TGI (MDA-MB-468 breast): < 10 nM | GI50 (OVCAR-8 ovarian): < 11.1 nM | TGI (OVCAR-8 ovarian): < 15.8 nM | GI50 (SNB-75 CNS): < 10 nM | TGI (SNB-75 CNS): < 10 nM | GI50 (OVCAR-5 ovarian): < 10 nM | TGI (OVCAR-5 ovarian): < 16.3 nM | GI50 (HCC-2998 colon): < 11.8 nM | TGI (HCC-2998 colon): < 16.5 nM | GI50 (HCT-15 colon): < 10 nM | TGI (HCT-15 colon): < 13.6 nM | GI50 (EKVX NSCLC): < 10 nM | TGI (EKVX NSCLC): < 19 nM | GI50 (SF-295 CNS): < 10 nM | TGI (SF-295 CNS): < 10 nM | GI50 (A549 NSCLC): < 10 nM | TGI (A549 NSCLC): 62 nM | GI50 (SF-268 CNS): < 10 nM | TGI (SF-268 CNS): < 10 nM | GI50 (IGROV1 ovarian): < 11 nM | TGI (IGROV1 ovarian): < 16 nM | GI50 (HL-60(TB) leukemia): < 10 nM | TGI (HL-60(TB) leukemia): < 10 nM | GI50 (UACC-257 melanoma): < 10 nM | TGI (UACC-257 melanoma): < 10 nM | GI50 (HOP-92 NSCLC): < 10 nM | TGI (HOP-92 NSCLC): < 10 nM | GI50 ([…]-0 renal): < 10 nM | TGI (786-0 renal): < 11.3 nM | GI50 (NCI-H460 NSCLC): < 13 nM | TGI (NCI-H460 NSCLC): 19.9 nM | GI50 (U251 glioblastoma): < 11.1 nM | TGI (U251 glioblastoma): 18.9 nM | GI50 (T-47D breast): < 10 nM | TGI (T-47D breast): < 10 nM | GI50 (CCRF-CEM leukemia): < 10 nM | TGI (CCRF-CEM leukemia): < 10 nM | GI50 (MOLT-4 leukemia): < 10 nM | TGI (MOLT-4 leukemia): < 10 nM | GI50 (HOP-62 NSCLC): < 10 nM | TGI (HOP-62 NSCLC): < 12.5 nM | GI50 (HT29 colon): < 10 nM | TGI (HT29 colon): < 10 nM | GI50 (UACC-62 melanoma): < 10 nM | TGI (UACC-62 melanoma): < 10 nM | GI50 (NCI-H322M lung): 17.7 nM | TGI (NCI-H322M lung): 91.8 nM | GI50 (SK-MEL-28 melanoma): < 10 nM | TGI (SK-MEL-28 melanoma): < 10 nM | GI50 (HS 578T breast): < 10 nM | TGI (HS 578T breast): < 10 nM | GI50 (MDA-MB-435 melanoma): < 10 nM | TGI (MDA-MB-435 melanoma): < 10 nM | GI50 (K-562 leukemia): < 10 nM | TGI (K-562 leukemia): < 10 nM | GI50 (OVCAR-3 ovarian): < 10 nM | TGI (OVCAR-3 ovarian): < 10 nM | GI50 (TK-10 renal): < 10 nM | TGI (TK-10 renal): < 10 nM | GI50 (SK-OV-3 ovarian): < 10 nM | TGI (SK-OV-3 ovarian): 30.3 nM | GI50 (SN12C renal): < 10.8 nM | TGI (SN12C renal): 18.9 nM | GI50 (SF-539 CNS): < 10 nM | TGI (SF-539 CNS): < 10 nM
